# Laboratory results taken from EP0540143B1, “Compounds and methods for inhibition of HIV and related viruses” (priority 1991, dated 1993).
# Tests used:
# HIV virus = experiment: Test A (XTT), MT4 cells infected with HIV; assay type: cell-based; settings: for inhibition at 1 µg/mL / inhibition at 10 µg/mL / inhibition at 100 µg/mL / inhibition at 0.1 µg/mL: Human immunodeficiency virus 1, MT4, Test A; for % inhibition: Test A
# Method: (§1) Tests A, B, C, and D (XTT)
# (§2) MT4 cells in a medium of RPMI 1640, 5% FCS, penicillin/streptomycin are adjusted to 2x10^5 cells/ml and seeded into microplates (96 wells/plate) 100 µl cell suspension/well giving 2x10^4 cells/well. The compound to be tested is made into a 10 mg/ml mixture in DMSO and stored at -20°C. The compound in DMSO is diluted with medium containing 10% DMSO in a 10-fold dilution series to give 1 mg/ml, 10 mg/ml, and […] solutions. Further dilutions to 400, 40, 4 and 0.4 mg/ml are made in medium containing microplates. Fifty µl of the 400, 40, and 4 mg/ml are transferred to the cell-containing microplates with a multi-channel pipette (final concentration: 100, 10, and 1 mg/ml). Finally, 50 µl of virus suspension is added to each well (with a repetitive "Eppendorf" multipipett). Each plate has at least six wells with the following: [Test A: HIV virus; Test B: HIV(II) virus; Test C: SIV virus; Test D: No virus]; with no drug (virus control) and six wells without virus (medium control). The plate is put into a plastic bag and incubated for six days in CO2 atmosphere. To each well in the plate is added 50 µl of XTT ((2,3-bis[2-methoxy-4-nitro-5-sulfophenyl]-5-[(phenylamino)carbonyl]-2H-tetrazolium hydroxide), (1 mg/ml 0.01-0.02 mM N-metyl-phenazonium methosulfate). After six hours of incubation in CO2 atmosphere the plates are covered with adhesive plate sealers and gently mixed on a vortex. Optical densities are determined at a wavelength of 450 nm and a reference wavelength of 650 nm. The percent reduction of cytotoxocity caused by the virus infection is calculated as follows: (OD450 compound - OD450 inf cells)/(OD450 uninf cells - OD450 inf cells)x 100 [formula]
# recombinant HIV-RT = recombinant HIV-RT (Human immunodeficiency virus type 1 group M subtype B, UniProt P04585); experiment: Test I (HIVRT (rAdt)), direct inhibition of recombinant HIV-RT; assay type: biochemical
# Method: The compounds were tested for direct inhibitory activity on HIV-RT in a volume of […] recombinant HIV-RT (diluted in virus disruption buffer to give 200.000 cpm).
# 100 mM Tris-HCl pH 7.6, 100 mM KCl, 4 mM MgCl2, 4 mM DTT, 275 mg/ml BSA, 0.5 mg (rA)n(dT)12-18 and 0.3 mM ^3H- dTTP (specific activity […]). After 60 minutess of incubation 40 ml in duplicate were spotted on paper discs and washed in 5% TCA. After rinsing the paper discs in ethanol they were dried and counted in scintillation fluid.
# SIV virus = experiment: Test C (XTT), MT4 cells infected with SIV; assay type: cell-based; settings: Simian immunodeficiency virus, MT4, Test C
# Method: as §1, §2
# HIV(II) virus = experiment: Test B (XTT), MT4 cells infected with HIV(II); assay type: cell-based; settings: Human immunodeficiency virus 1, MT4, Test B
# Method: as §1, §2
SMILES,inhibition at 1 µg/mL (HIV virus; 1 µg/ml) [%],inhibition at 10 µg/mL (HIV virus; 10 µg/ml) [%],inhibition at 100 µg/mL (HIV virus; 100 µg/ml) [%],inhibition at 0.1 µg/mL (recombinant HIV-RT) [%],inhibition at 1 µg/mL (recombinant HIV-RT) [%],inhibition at 10 µg/mL (recombinant HIV-RT; 10 µg/ml) [%],other results
CN1CCN(C(=S)NCCc2ccccc2)CC1,0,0,0,–,–,–,–
S=C(NCCc1ccccc1)Nc1ccccc1Cl,0,52,0,5,31,50,–
S=C(NCCc1ccccc1)Nc1nncs1,100,100,100,12,14,14,inhibition at 1 µg/mL (SIV virus): 0%; inhibition at 10 µg/mL (SIV virus): 17%; inhibition at 100 µg/mL (SIV virus): 0%; inhibition at 1 µg/mL (HIV(II) virus): 100%; inhibition at 10 µg/mL (HIV(II) virus): 57%; inhibition at 100 µg/mL (HIV(II) virus): 96%
CCCCCCCCCCCCCCc1sc(NC(=S)NCCc2ccccc2)nc1-c1ccc(Cl)cc1,0,0,33,1,1,1,–
S=C(NCCc1ccccc1)Nc1nc(-c2ccncc2)cs1,32,51,–,–,–,–,% inhibition (HIV virus; 1 µg/ml): 46%; % inhibition (HIV virus; 10 µg/ml): 65%
S=C(NCCc1ccccc1)N1CCCCC1,0,0,–,–,–,–,inhibition at 0.1 µg/mL (HIV virus): 0%
COc1ccc(CCNC(=S)Nc2nccs2)cc1OC,–,54,0,–,–,–,% inhibition (HIV virus; 10 µg/ml): 58%
S=C(NCCc1ccccc1)NCc1ccco1,10,7,–,7,12,10,inhibition at 0.1 µg/mL (HIV virus): 3%
CC(C)(C)c1csc(NC(=S)NCCc2ccccc2)n1,0,9,0,8,8,15,inhibition at 0.1 µg/mL (HIV virus): 0%
S=C(NCCc1ccccc1)Nc1cc[nH]n1,0,0,0,1,8,38,–
Fc1cccc(Cl)c1CCNC(=S)Nc1nccs1,100,–,–,43,77,92,% inhibition (HIV virus; 1 µg/ml): 98%; % inhibition (HIV virus; 10 µg/ml): 52%
Cc1cccc2sc(NC(=S)NCCc3ccccc3)nc12,8,28,50,12,12,24,–
CCc1nnc(NC(=S)NCCc2ccccc2)s1,0,7,17,12,–,11,% inhibition (recombinant HIV-RT; 10 µg/ml): 17%
Cc1nnc(NC(=S)NCCc2ccccc2)s1,3,38,20,1,21,18,–
S=C(NCCc1ccccc1)Nc1cnccn1,4,100,100,1,27,36,inhibition at 1 µg/mL (SIV virus): 2%; inhibition at 10 µg/mL (SIV virus): 20%; inhibition at 100 µg/mL (SIV virus): 100%
S=C(NCCc1ccccc1)Nc1nc(-c2ccc(Cl)cc2)cs1,0,0,18,1,1,1,–
S=C(NCCc1ccccc1)Nc1ncco1,0,0,–,–,–,–,inhibition at 0.1 µg/mL (HIV virus): 0%

SMILES,inhibition at 1 µg/mL (HIV virus; 1 µg/ml) [%],inhibition at 10 µg/mL (HIV virus; 10 µg/ml) [%],inhibition at 100 µg/mL (HIV virus; 100 µg/ml) [%],inhibition at 0.1 µg/mL (recombinant HIV-RT) [%],inhibition at 1 µg/mL (recombinant HIV-RT) [%],inhibition at 10 µg/mL (recombinant HIV-RT; 10 µg/ml) [%],other results
Cc1ccnc(NC(=S)NCCc2ccccc2)n1,42,64,100,9,15,9,inhibition at 1 µg/mL (SIV virus): 0%; inhibition at 10 µg/mL (SIV virus): 0%; inhibition at 100 µg/mL (SIV virus): 0%; inhibition at 1 µg/mL (HIV(II) virus): 0%; inhibition at 10 µg/mL (HIV(II) virus): 27%; inhibition at 100 µg/mL (HIV(II) virus): 100%
S=C(NCCc1ccccc1)Nc1nc(-c2ccc(Br)cc2)cs1,0,0,30,1,1,1,–
Fc1ccc(NC(=S)NCCc2ccccc2)cc1,5,41,0,–,–,–,inhibition at 0.1 µg/mL (HIV virus): 0%; % inhibition (HIV virus; 10 µg/ml): 32%
S=C(NCCc1ccccc1)Nc1ccc(Cl)cc1,17,67,0,4,29,35,–
COC(=O)C(=O)c1csc(NC(=S)NCCc2ccccc2)n1,0,0,0,1,1,13,–
S=C(NCCc1ccccc1)Nc1cnc2ccccc2c1,0,71,0,–,–,–,–
S=C(NCCc1ccccc1)Nc1ccccc1,0,25,0,1,16,16,–
S=C(NCCc1ccccc1)Nc1ccccn1,0,2,6,–,–,–,–
S=C(NCCc1ccccc1)N1CCCc2ccccc21,0,0,–,–,–,–,–
CCCCOC(=O)c1ccc(NC(=S)NCCc2ccccc2)cc1,0,0,–,–,–,–,inhibition at 0.1 µg/mL (HIV virus): 0%
S=C(NCCc1ccccc1)N1CCOCC1,13,9,–,–,–,–,inhibition at 0.1 µg/mL (HIV virus): 0%
CCOc1ccccc1CCNC(=S)Nc1nccs1,96,100,100,12,30,33,inhibition at 1 µg/mL (SIV virus): 0%; inhibition at 10 µg/mL (SIV virus): 5%; inhibition at 100 µg/mL (SIV virus): 0%; inhibition at 1 µg/mL (HIV(II) virus): 100%; inhibition at 10 µg/mL (HIV(II) virus): 91%; inhibition at 100 µg/mL (HIV(II) virus): 100%
NS(=O)(=O)c1ccc(NC(=S)NCCc2ccccc2)cc1,0,22,–,–,–,–,inhibition at 0.1 µg/mL (HIV virus): 3%
S=C(NCCc1ccccc1)Nc1ncccn1,0,23,22,5,12,6,–
CCOc1ccc2nc(NC(=S)NCCc3ccccc3)sc2c1,0,5,33,1,5,8,–
S=C(NCCc1ccc(Cl)cc1)Nc1nccs1,–,79,73,–,–,–,% inhibition (HIV virus; 10 µg/ml): 93%; % inhibition (HIV virus; 100 µg/ml): 71%
